The subject of assay [1] is IR condensates. Description: tc-PALM of IR cluster/condensate dynamics in HepG2 cells expressing IR-Dendra2. It counts as cell-based, human. The protocol:
Widefield Live-cell super-resolution imaging was performed in a photo-activation localization microscopy (PALM) approach using a Nikon Eclipse Ti microscope with a 100× oil immersion objective. The 405 nm and 561 nm laser beams were combined in an external platform with customized power densities to image Dendra2-tagged molecules as previously reported (56). Cells were maintained at 37° C. in a temperature-controlled platform during imaging, and the CO2 level was maintained at 5% by Leibovitz's L-15 Medium with no phenol red (ThermoFisher #21083027). In each imaging cycle, a 2400-frame video stream including a (256 pixel)2 region of interest (ROI) was recorded in 20 Hz acquisition rate with the EM-gain setting as 1000 on an Andor iXon Ultra 897 EMCCD. Each pixel conjugates with a (160 nm)2 area on the sample side. After PALM imaging, the Hoechst-stained nuclei of the same ROI were imaged with stronger 405 nm excitation through DAPI filter.
Detection localization. For each frame of a raw image, Gaussian particles were identified by pixelwise test of hypotheses, whose peak positions were individually fitted at subpixel resolution by maximum-likelihood regression with Gauss-Newton method (91). An additional deflation loop was performed to avoid missing dimmer particles when they were overshadowed by neighboring brighter ones. This multi-particle detection localization procedure has been integrated in a published, open-source MATLAB software called MTT (91).
Spatial clustering. DBSCAN and “manual selection” hybridized approach was applied to group spatially clustered detections via the qSR software (92). Firstly, DBSCAN was performed to generalize a proposal map of spatially clustered detections. Given that IR condensates can be tiny and transient, a “loose” parameter setting was used when performing the DBSCAN (length-scale=120 nm, N_min=4). This parameter combination was determined by comparing the rendered super-resolved reconstructions with the color-coded cluster maps until the clustering results visually make sense for most ROIs. Secondly, individual clusters were manually selected based on the clustering proposal map from last step. Some custom MATLAB code was used to reconstruct the IR distribution of each ROI superposed with the corresponding nuclei image, which was further cross-compared with the corresponding cluster map to determine which region each cluster belongs to (i.e., plasma-membrane, cytoplasm, or nucleus).
Temporal clustering. For each spatial cluster, time-correlated PALM (tc-PALM) analysis was performed along the time axis to extract the truly colocalized, time-correlated multimolecule bursting events (11, 13-14). The lifetime of a burst is simply defined as the timespan from the first to the last detections. More details about the quantitative validations and statistics of tc-PALM analysis can be found in NOTES and FIG. 11.
Widefield, live-cell, super-resolution imaging was performed in a photo-activation localization microscopy (PALM) approach using a Nikon Eclipse Ti microscope with a 100× oil immersion objective. The 405 nm and 561 nm laser beams were combined in an external platform with customized power densities to image Dendra2-tagged molecules as previously reported^24. Cells were cultured on imaging dishes (MatTek, P35G-1.5-20-C) and then imaged while maintaining both the temperature at 37° C. with a temperature-controlled platform and the level of CO2 at 5% with Leibovitz's L-15 Medium with no phenol red (Thermo Fisher, 21083027). During each imaging cycle, a 2400-frame video stream including a (256 pixel)^2 region of interest (ROI) was recorded in 20 Hz acquisition rate with the EM-gain setting as 1000 on an Andor iXon Ultra 897 EMCCD. Each pixel conjugates with a (160 nm)^2 area on the sample side. After PALM imaging, the Hoechst-stained nuclei of the same ROI were imaged using a stronger 405 nm excitation through DAPI filter. […] Following a 5-minute wait, the cells were imaged for 15-20 minutes.

The test system of assay [2] is reactive oxygen species (ROS). Description: Quantification of ROS using a ROS-sensitive dye in HepG2 cells. In kind it is cell-based, human. The protocol: Cells expressing endogenous IR tagged with GFP were treated with ROS dye (Abcam, ab186029) following the manufacturer's instructions. […] Cells were incubated at 37° C. with 5% CO2 in a humidified incubator for 30 min. Cells were imaged at 37° C. using the LSM880 Microscope with Airyscan detector with 63×objective and Zen Black software (ZEISS) at the W.M. Keck Microscopy Facility, MIT. Images were then processed using Fiji/ImageJ v2.1.0/153c. Quantification of the ROS dye fluorescence intensity per cell was performed using Fiji. Using the polygon selection tool on Fiji/ImageJ v2.1.0/153c, a polygon was drawn around a cell outline, which was identified by looking at the IR-GFP channel. The average ROS dye fluorescence intensity in the polygon (=in the cell) was determined using the measure tool on Fiji/ImageJ v2.1.0/153c. […] Cells were incubated at 37° C. with 5% CO2 in a humidified incubator for 30 minutes. Cells were imaged at 37° C. using the LSM880 Microscope with Airyscan detector with 63× objective and Zen Black software (ZEISS) at the W.M. Keck Microscopy Facility, MIT. Images were then processed using Fiji/ImageJ v2.1.0/153c. Quantification of the ROS dye fluorescence intensity per cell was performed using Fiji. […] The average ROS dye fluorescence intensity in the polygon (=in the cell) was determined using the measure tool on Fiji/ImageJ v2.1.0/153c.

[3] abbreviates: insulin resistant (3 nM insulin) versus sensitive (0.1 nM) cells.
Where [4] appears, read: insulin sensitive cells, 3 nM insulin 5 min.

“Also recorded” adds a separate entry of the source.

Regarding “insulin: insulin (Sigma Aldrich, I9278-5ML) used for acute stimulation and chronic physiological or pathological exposure”, the “average number of IR-Dendra2 detections per cluster” value in assay [1] (entire cells, insulin-stimulated (3 nM, 5 min), 22 (range 4-609) in unstimulated cells) is given as 27 (range 4-539). Moreover, in assay [1] (setting [3]), the “increase of percentage of long-lived IR clusters, cytoplasm” value worked out at 1.4 fold and the “increase of percentage of long-lived IR clusters, nucleus” value is recorded as 3.6 fold. Besides, in assay [1] (setting [4]), the “number of IR clusters in the cytoplasm and nucleus” value was “produced an increase; also recorded: resulted in an increase”; the “number of IR molecules / IR detections in clusters” value is “an increase in the number of IR molecules in these clusters; also recorded: an increase in the number of IR detections in clusters”. Besides, the “average number of IR molecules per cluster, nucleus” value in assay [1] (insulin stimulated cells (3 nM, 5 min), 9 (2-46) in unstimulated cells) was 14 (2-283). In addition, in assay [1] (insulin stimulated cells (3 nM, 5 min), 14 (2-264) in unstimulated cells), the “average number of IR molecules per cluster, cytoplasm” value is 19 (2-295). In addition, the “percentage of long-lived IR condensates in the plasma membrane, cytoplasm and nucleus” value in assay [1] (insulin-resistant (3 nM insulin) versus sensitive cells (FIG. 18B)) was “also increased”. Moreover, the “average lifetime of short-lived IR clusters, nucleus” value in assay [1] (pathologic insulin (3 nM), insulin resistant cells, 5.9 s in sensitive cells (FIG. 4B)) is on record as 16 s. The “average lifetime of short-lived IR clusters, cytoplasm” value in assay [1] (pathologic insulin (3 nM), insulin resistant cells, 9.8 s in sensitive cells (FIG. 4B)) was determined as 13.2 s. The “average lifetime of short-lived IR condensates, plasma membrane” value in assay [1] (pathologic insulin (3 nM), insulin-resistant cells, 6.8 s in sensitive cells (FIG. 18B)) is 11.8 s. Also, the “average lifetime of short-lived IR condensates, nucleus” value in assay [1] (pathologic insulin (3 nM), insulin-resistant cells, 7.0 s in sensitive cells (FIG. 18B)) came out at 12.9 s. Moreover, in assay [1] (pathologic insulin (3 nM), insulin-resistant cells, 10.0 s in sensitive cells (FIG. 18B)), the “average lifetime of short-lived IR condensates, cytoplasm” value is listed as 15.8 s.

In the case of TNFα, the “IR dynamics in condensates” value in assay [1] (HepG2 IR-Dendra2 cells, pathological TNFα or high nutrients (FIGS. 36A-36B)) is listed as “decreased IR dynamics in condensates”. In assay [2] (HepG2 cells (FIG. 27C), also refs 19,77-79), the “production of ROS” value is “excessive production of ROS”.

Take `CN(C)C(=N)N=C(N)N` [metformin, reference compound]: the “IR condensate lifetimes in the plasma membrane, cytoplasm and nucleus” value in assay [1] (insulin-resistant cells, 12.5 μM metformin, after insulin washout (FIG. 18B)) was “rescued condensate lifetimes in the plasma membrane, cytoplasm and nucleus to times that were similar to those in insulin-sensitive cells”. In assay [1] (insulin-sensitive HepG2 IR-Dendra2 cells, 12.5 μM metformin for 1 day (FIG. 37)), the “IR condensate lifetime in insulin-sensitive cells” value is listed as “did not decrease IR condensate lifetime; also recorded: does not decrease IR condensate lifetime”. For the same compound, in assay [1] (metformin-treated insulin resistant cells (FIG. 5C), no acute insulin stimulation), the “IR cluster lifetimes in the cytoplasm and nucleus” value is “reduced cluster lifetimes in the cytoplasm and nucleus to times that were similar to those in insulin sensitive cells”. Moreover, the “IR cluster lifetimes in the plasma membrane” value in assay [1] (metformin-treated insulin resistant cells, 12.5 M metformin as printed (FIG. 5C), no acute insulin stimulation) is on record as “little effect”. Also, in assay [1] (metformin-treated resistant cells vs resistant cells (FIG. 5C)), the “frequency of nuclear IR clusters with 0-25 s lifetimes” value was “increased”. The “frequency of plasma membrane and nuclear IR condensates with 0-13 s lifetimes” value in assay [1] (metformin-treated resistant cells vs resistant cells (FIG. 18B)) was “increased”. Moreover, the “IR clusters in the cytoplasm with a lifetime of 0-25 s” value in assay [1] (metformin-treated resistant cells, ~40% in insulin resistant cells (FIG. 5C)) was around 60%. Further, the “IR condensates in the cytoplasm with a lifetime of 0-13 s” value in assay [1] (metformin-treated resistant cells, ~40% in insulin-resistant cells (FIG. 18B)) is around 60%. Further, the “ROS levels (ROS-sensitive dye)” value in assay [2] (insulin resistant HepG2 cells, 12.5 μM metformin) is “reduced ROS levels to those found in insulin sensitive cells; also recorded: reduced ROS levels to those found in insulin-sensitive cells”.

(Values after patent US20250186379A1, “METHODS AND AGENTS FOR DECREASING INSULIN RESISTANCE” (Whitehead Institute for Biomedical Research, priority 2021, published 2025).)
